Here are results for 37 substances from US11214803B2, “Modulators of YAP1 expression” (Ionis Pharmaceuticals, Inc., priority 2019, dated 2022).

The series concerns Yap1 mRNA. As to the kind of experiment: Antisense inhibition of human Yap1 in A-431 cells by cEt gapmers, single dose (Example 2, RTS4814). Format: cell-based. The procedure, abridged:
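A-431 cells (5,000/well) received 2,000 nM oligonucleotide by free uptake for about 48 h. Yap1 mRNA was then quantified by RT-qPCR with primer probe set RTS4814, normalized to RIBOGREEN total RNA, and reported as % of untreated control; asterisked values mark oligos inside the amplicon.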

Setting [1] is: Table 22, Yap1 mRNA as percent of untreated control, 3-10-3 cEt gapmers, single dose.
[2] abbreviates: Table 20, Yap1 mRNA, percent of untreated control, 3-10-3 cEt gapmers targeting SEQ ID NO.: 1 and 2.
Where [3] appears, read: Table 6, A-431 cells, 5,000 cells per well, free uptake, 2,000 nM modified oligonucleotide, approx. 48 hours, RTS4814, normalized to RIBOGREEN, Yap1 mRNA relative to untreated control cells.
[4] abbreviates: Table 23, Yap1 mRNA as percent of untreated control, 3-10-3 cEt gapmers, single dose.
[5] abbreviates: Yap1 mRNA as percent of untreated control, A-431 cells, 3-10-3 cEt gapmers targeting SEQ ID NO.: 1, and 2, Table 31.
Setting [6] is: Table 21, Yap1 mRNA, percent of untreated control, 3-10-3 cEt gapmers targeting SEQ ID NO.: 1 and 2.
The mark [7] stands for this setting: Table 24, Yap1 mRNA as percent of untreated control, 3-10-3 cEt gapmers targeting SEQ ID NO.: 1, and 2.
[8] abbreviates: Table 19, A-431 cells, 5,000 cells per well, free uptake, 2,000 nM modified oligonucleotide, approx. 48 hours, RTS4814, normalized to RIBOGREEN, Yap1 mRNA as percent of untreated control.
Where [9] appears, read: Table 32, Yap1 mRNA, percent of untreated control, 3-10-3 cEt gapmers targeting SEQ ID NO.: 1, and 2.
Setting [10] is: Table 5, A-431 cells, 5,000 cells per well, free uptake, 2,000 nM modified oligonucleotide, approx. 48 hours, RTS4814, normalized to RIBOGREEN, Yap1 mRNA relative to untreated control cells.

Strand notation (5' to 3'): a small letter for the sugar, then the base; units joined by * are phosphorothioate-linked, units joined directly phosphodiester-linked; [ ] holds rarer units or linkages, { } end groups; capitals alone tell only the bases. k = constrained ethyl (cEt); [5mC] = 5-methylcytosine; d = 2'-deoxy (DNA)

As for “1074600 (antisense k[5mC]*kA*kG*d[5mC]*dT*dA*dA*d[5mC]*dT*d[5mC]*dA*dA*dA*kA*k[5mC]*k[5mC]) [Compound 1074600]”, under setting [1], the “YAP1 (% UTC)” value turned out to be 29 % UTC.
On to “1074822 (kT*kA*kG*dA*dA*dA*dA*dG*dT*dG*dT*dT*dA*kA*kG*k[5mC]; antisense) [Compound 1074822]”, for which the “YAP1 (% UTC)” value under setting [2] worked out at 25 % UTC.
For “716570 (kA*kA*kG*dT*dG*dT*dT*dT*dA*dG*dG*d[5mC]*dA*kA*kG*k[5mC]; antisense) [Compound 716570]”, under setting [3], the “YAP1 (% UTC)” value stood at 56 % UTC.
Consider “1075017 (antisense k[5mC]*kT*kT*dA*dA*dA*dG*dT*dG*dA*dT*dA*d[5mC]*kA*k[5mC]*k[5mC]) [Compound 1075017]”, for which the “YAP1 (% UTC)” value under setting [4] is on record as 19 % UTC.
Same read-out and setting: the value for “1075209 (antisense k[5mC]*kA*kT*d[5mC]*dA*dA*d[5mC]*dA*dA*dT*dG*dG*dT*k[5mC]*kT*kA) [Compound 1075209]” was 11 % UTC.
As to “1074280 (antisense kG*kG*kT*d[5mC]*dA*dA*dG*d[5mC]*d[5mC]*dT*dT*dG*dG*kG*kT*k[5mC]) [Compound 1074280]”, the “YAP1 (% UTC)” value under setting [1] came to 43 % UTC.
Same read-out and setting: with “1076104 (kA*k[5mC]*kG*dA*dA*dA*dT*dA*dG*dT*dA*dA*d[5mC]*kT*kG*kT; antisense) [Compound 1076104]” the figure was 24 % UTC.
For “1075345 (antisense kG*kT*kA*dA*d[5mC]*dT*dA*dA*dA*dA*dG*dG*dG*kA*kG*kT) [compound 1075345]”, the “YAP1 (% UTC)” value under setting [5] is 29 % UTC.
Take “1074247 (antisense kA*kT*k[5mC]*dG*dA*dT*dG*dT*dG*dA*dT*dT*dT*kA*kA*kG) [Compound 1074247]”: under setting [6], the “YAP1 (% UTC)” value came out at 43 % UTC.
With “1074632 (antisense kT*k[5mC]*kA*dT*dA*dG*d[5mC]*dA*dG*d[5mC]*dT*dT*dT*kT*kG*k[5mC]) [Compound 1074632]”, the “YAP1 (% UTC)” value under setting [1] stood at 12 % UTC.
For “1075784 (kA*kT*kT*dT*dT*dA*dT*dA*dG*dG*dG*d[5mC]*d[5mC]*kA*kT*kT; antisense) [Compound 1075784]”, the “YAP1 (% UTC)” value under setting [1] was 3 % UTC.
For “1075082 (antisense k[5mC]*kT*kT*dT*dA*dG*dA*dT*dA*d[5mC]*dA*dA*dG*kA*kG*kG) [Compound 1075082]”, the “YAP1 (% UTC)” value under setting [7] amounted to 80 % UTC.
On to “1075877 (k[5mC]*kT*kG*dG*dA*dA*dA*dA*dG*dT*dA*d[5mC]*dA*kT*kT*k[5mC]; antisense) [Compound 1075877]”, for which, under setting [8], the “YAP1 (% UTC)” value was 28 % UTC.
As to “1075666 (antisense kA*kA*kA*dT*dT*dT*dA*dG*dT*dT*dG*dT*dG*k[5mC]*kA*k[5mC]) [compound 1075666]”, the “YAP1 (% UTC)” value under setting [9] is on record as 106 % UTC.
As for “1075590 (k[5mC]*kA*kT*d[5mC]*dA*dA*dA*dA*dT*dT*dA*dG*d[5mC]*kA*kG*kG; antisense) [Compound 1075590]”, the “YAP1 (% UTC)” value under setting [2] turned out to be 50 % UTC.
For “1074706 (antisense kT*kT*kA*dA*dT*dG*dG*d[5mC]*dA*dG*d[5mC]*dA*d[5mC]*kG*kG*kT) [compound 1074706]”, the “YAP1 (% UTC)” value under setting [9] is given as 48 % UTC.
Turning to “1076048 (kG*kA*kT*dT*dA*dA*dA*dG*dG*d[5mC]*dT*dG*dG*kA*kA*kG; antisense) [compound 1076048]”, where the note is “Yap1 mRNA as percent of untreated control, A-431 cells, 3-10-3 cEt gapmers targeting SEQ ID NO.: 1, and 2, Table 30”, the “YAP1 (% UTC)” value was determined as 32 % UTC.
“716562 (kG*k[5mC]*k[5mC]*dT*dG*d[5mC]*d[5mC]*dG*dA*dA*dG*d[5mC]*dA*kG*kT*kT) [Compound 716562]”: the “YAP1 (% UTC)” value (Table 7 (gapmers targeting SEQ ID NO: 3 and 4), A-431 cells, free uptake, 2,000 nM, approximately 48 hours, RTS4814) was found to be 103 % UTC.
Take “1075026 (antisense k[5mC]*kT*kT*dA*dA*dA*dA*dG*d[5mC]*d[5mC]*dA*dT*d[5mC]*kT*kA*k[5mC]) [compound 1075026]”: under setting [9], the “YAP1 (% UTC)” value was 55 % UTC.
In the case of “716516 (antisense kA*kA*k[5mC]*dT*dT*dT*d[5mC]*d[5mC]*d[5mC]*dA*d[5mC]*d[5mC]*d[5mC]*kT*k[5mC]*k[5mC]) [Compound 716516]”, under setting [3], the “YAP1 (% UTC)” value is given as 84 % UTC.
“1076306 (k[5mC]*kT*kT*dT*dA*d[5mC]*dT*dA*d[5mC]*dT*dA*dA*dT*kA*kA*kG; antisense) [compound 1076306]”: the “YAP1 (% UTC)” value under setting [9] worked out at 99 % UTC.
For the substance “1074152 (antisense k[5mC]*kG*kG*dG*d[5mC]*d[5mC]*dG*dA*dG*dG*dT*dG*dG*kA*kG*kA) [Compound 1074152]”, under setting [1], the “YAP1 (% UTC)” value was 77 % UTC.
For “1076165 (k[5mC]*k[5mC]*k[5mC]*d[5mC]*dA*dA*dG*dG*dA*d[5mC]*dT*dT*dG*k[5mC]*k[5mC]*kA; antisense) [Compound 1076165]”, the “YAP1 (% UTC)” value under setting [8] was determined as 79 % UTC.
On to “716353 (kG*k[5mC]*kA*dT*d[5mC]*d[5mC]*d[5mC]*d[5mC]*d[5mC]*dG*d[5mC]*d[5mC]*d[5mC]*k[5mC]*kG*kG; antisense) [Compound 716353]”, for which the “YAP1 (% UTC)” value under setting [10] is 98 % UTC.
“1074313 (antisense kT*kG*kA*dT*dA*dT*dT*d[5mC]*d[5mC]*dG*d[5mC]*dA*dT*kT*kG*k[5mC]) [Compound 1074313]”: the “YAP1 (% UTC)” value under setting [4] stood at 5 % UTC.
“1074865 (kA*k[5mC]*kA*dT*dA*dT*dG*dA*dG*d[5mC]*dA*dT*dG*k[5mC]*kT*k[5mC]; antisense) [compound 1074865]”: under setting [5], the “YAP1 (% UTC)” value is 46 % UTC.
For “1075622 (kT*k[5mC]*kT*dT*dA*dT*dA*d[5mC]*d[5mC]*dT*dA*dT*d[5mC]*kT*kT*k[5mC]; antisense) [Compound 1075622]”, the “YAP1 (% UTC)” value under setting [2] was found to be 56 % UTC.
As for “716533 (antisense k[5mC]*kA*kA*dT*dT*d[5mC]*dA*dA*dG*dA*dA*dT*dA*k[5mC]*k[5mC]*k[5mC]) [Compound 716533]”, the “YAP1 (% UTC)” value under setting [10] amounted to 64 % UTC.
With “716462 (kT*kT*kA*dA*dA*d[5mC]*dT*dA*d[5mC]*d[5mC]*dA*dG*dT*kG*kA*kA; antisense) [Compound 716462]”, the “YAP1 (% UTC)” value under setting [3] is 86 % UTC.
As to “1076299 (k[5mC]*kG*kT*dT*dA*dT*dA*dA*dA*dG*dA*d[5mC]*d[5mC]*k[5mC]*kA*kA; antisense) [Compound 1076299]”, the “YAP1 (% UTC)” value (Table 25, Yap1 mRNA as percent of untreated control, 3-10-3 cEt gapmers targeting SEQ ID NO.: 1, and 2) came out at 3 % UTC.
For the substance “1076489 (antisense k[5mC]*kA*kA*dA*dA*dT*dA*dG*dG*dT*dG*dA*dG*kT*k[5mC]*kA) [Compound 1076489]”, the “YAP1 (% UTC)” value under setting [4] is 2 % UTC.
For the substance “716504 (kA*kT*kA*dA*dA*dA*dG*d[5mC]*d[5mC]*dT*dT*dA*dG*kA*kG*kT; antisense) [Compound 716504]”, the “YAP1 (% UTC)” value under setting [3] stood at 112 % UTC.
“1075013 (antisense k[5mC]*kA*kT*dA*dA*dA*d[5mC]*d[5mC]*d[5mC]*dA*d[5mC]*dT*dT*k[5mC]*kG*kA) [Compound 1075013]”: the “YAP1 (% UTC)” value under setting [8] came out at 102 % UTC.
Turning to “1076554 (antisense kT*kG*kG*dG*dA*dA*dT*dA*dG*dT*dG*dA*dA*kT*kT*kT) [Compound 1076554]”, the “YAP1 (% UTC)” value under setting [7] came out at 30 % UTC.
Consider “1076273 (kA*kA*kA*d[5mC]*dA*dA*dA*dA*dT*dG*dG*d[5mC]*dG*kA*kA*kT; antisense) [compound 1076273]”, for which, under setting [5], the “YAP1 (% UTC)” value is on record as 84 % UTC.
For the substance “1075239 (antisense kT*k[5mC]*kT*dT*dA*dA*dA*d[5mC]*dA*dG*dG*dT*dG*k[5mC]*k[5mC]*kA) [Compound 1075239]”, the “YAP1 (% UTC)” value under setting [6] was 27 % UTC.
Consider “716542 (antisense k[5mC]*kT*kT*d[5mC]*d[5mC]*d[5mC]*dT*dG*dT*dG*dT*dT*d[5mC]*kA*kT*kT) [Compound 716542]”, for which, under setting [10], the “YAP1 (% UTC)” value came out at 45 % UTC.
